According to US11155525B2 (Sanford Burnham Prebys Medical Discovery Institute, priority 2015, dated 2021):

Each molecule was assayed against T1, human apelin receptor (Homo sapiens, UniProt P35414) (assay: Measurement of apelin receptor agonist activity (cell-based assay determining the amount of intracellular cAMP)). Conditions: CHO cells stably expressing the human apelin receptor, Forskolin 10 μM, 30 minutes, 100% efficacy = [Pyr1]-apelin-13 0.300 μM, concentration giving 50% efficacy.
T1 construct: host or cells: CHO cells
T1 sequence (P35414 1-380): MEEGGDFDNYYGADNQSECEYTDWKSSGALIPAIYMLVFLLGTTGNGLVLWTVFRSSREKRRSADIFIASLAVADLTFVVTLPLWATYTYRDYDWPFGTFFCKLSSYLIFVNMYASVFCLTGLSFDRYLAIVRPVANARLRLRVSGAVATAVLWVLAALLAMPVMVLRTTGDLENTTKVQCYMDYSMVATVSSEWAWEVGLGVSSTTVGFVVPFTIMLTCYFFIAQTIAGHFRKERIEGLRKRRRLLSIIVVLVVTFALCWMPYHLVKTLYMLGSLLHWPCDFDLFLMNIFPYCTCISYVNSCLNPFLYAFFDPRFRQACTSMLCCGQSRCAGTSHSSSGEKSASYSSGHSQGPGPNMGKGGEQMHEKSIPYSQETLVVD
Experimental: Measurement of Apelin Receptor Agonist Activity
The apelin receptor agonist activity of the compound represented by formula (I) or (II) of the present invention was measured by cell-based assay for determining the amount of intracellular cAMP.
CHO cells (DiscoveRx Corp.) stably expressing the human apelin receptor were inoculated to wells of a microtiter plate and cultured overnight at 37° C. under conditions of 5% CO2.
Each test compound and Forskolin were added to the wells at the same time. Specifically, the test compound dissolved in DMSO was diluted with a Forskolin-containing buffer [DMEM/F-12, HEPES, no phenol red (#11039, GIBCO)] to prepare a mixed solution containing the test compound at a final concentration of […] (common ratio: 3, serial dilution: 11), Forskolin at a final concentration of 10 μM, and DMSO at a final concentration of 0.3% v/v, which was then added to the wells (N═4).
After 30 minutes, the cells were lysed, and HitHunter cAMP XS+ Assay #90-0075L (DiscoveRx Corp.) was added to the cell lysate. The mixture was left overnight, and the resulting chemiluminescence signals were then detected using Analyst GT (Molecular Devices LLC.) to determine the amount of cAMP.
The amount of cAMP determined by the addition of a positive control [Pyr1]-apelin-13 (final concentration: 0.300 μM) and Forskolin (final concentration: 10 μM) at the same time was used as an index to define 100% efficacy. The amount of cAMP determined by the addition of Forskolin (final concentration: 10 μM) alone was used as an index to define 0% efficacy.
A dose response curve was prepared from the final concentration of the test compound and the determined amount of cAMP using Sigmaplot 12.0.
`COc1cccc(OC)c1-n1c(SCC(=O)O)nnc1-c1ccco1` [Example 61, {[4-(2,6-Dimethoxyphenyl)-5-(furan-2-yl)-4H-1,2,4-triazol-3-yl]sulfanyl}acetic acid] was tested, and the EC50 was 412 nM. With `COc1cccc(OC)c1-n1c(SCC(=O)O)nnc1-c1ccoc1` [Example 62, {[4-(2,6-Dimethoxyphenyl)-5-(furan-3-yl)-4H-1,2,4-triazol-3-yl]sulfanyl}acetic acid] the EC50 was 808 nM. `COc1cccc(OC)c1-n1c(SCC(=O)O)nnc1-c1cc(C)c(C)o1` [Example 63, {[4-(2,6-Dimethoxyphenyl)-5-(4,5-dimethylfuran-2-yl)-4H-1,2,4-triazol-3-yl]sulfanyl}acetic acid] was tested, and the EC50 was 716 nM. In the case of `COc1cccc(OC)c1-n1c(/C=C/C(=O)O)nnc1-c1ccc(C)o1` [Example 64, Ammonium (2E)-3-[4-(2,6-dimethoxyphenyl)-5-(5-methylfuran-2-yl)-4H-1,2,4-triazol-3-yl]prop-2-enoate], the EC50 is reported as 52 nM. In the case of `COc1cccc(OC)c1-n1c(/C=C/C(=O)O)nnc1-c1ccc(C)o1` [Example 65, Sodium (2E)-3-[4-(2,6-dimethoxyphenyl)-5-(5-methylfuran-2-yl)-4H-1,2,4-triazol-3-yl]prop-2-enoate], the EC50 is reported as 75 nM. Molecule `CCOC(=O)COCc1nnc(-c2ccc(C)o2)n1-c1c(OC)cccc1OC` [Example 66, Ethyl {[4-(2,6-dimethoxyphenyl)-5-(5-methylfuran-2-yl)-4H-1,2,4-triazol-3-yl]methoxy}acetate] has an EC50 of 817 nM. `COc1cccc(OC)c1-n1c(COCC(=O)O)nnc1-c1ccc(C)o1` [Example 67, {[4-(2,6-Dimethoxyphenyl)-5-(5-methylfuran-2-yl)-4H-1,2,4-triazol-3-yl]methoxy}acetic acid] gave an EC50 of 774 nM. `COc1cccc(OC)c1-n1c(CSc2nnc[nH]2)nnc1-c1ccc(C)o1` [Example 68, 4-(2,6-Dimethoxyphenyl)-3-(5-methylfuran-2-yl)-5-[(4H-1,2,4-triazol-3-ylsulfanyl)methyl]-4H-1,2,4-triazole] showed an EC50 of 1330 nM. `COc1cccc(OC)c1-n1c(CS(=O)(=O)c2nnc[nH]2)nnc1-c1ccc(C)o1` [Example 69] showed an EC50 of 696 nM. Work on `COc1cccc(OC)c1-n1c(CN)nnc1-c1ccc(C)o1` [Example 70, 1-[4-(2,6-Dimethoxyphenyl)-5-(5-methylfuran-2-yl)-4H-1,2,4-triazol-3-yl]methanamine] yielded an EC50 of 384 nM. Molecule `COc1cccc(OC)c1-n1c(CNS(C)(=O)=O)nnc1-c1ccc(C)o1` [Example 71, N-{[4-(2,6-Dimethoxyphenyl)-5-(5-methylfuran-2-yl)-4H-1,2,4-triazol-3-yl]methyl}methanesulfonamide] has an EC50 of 1070 nM. `COc1cccc(OC)c1-n1c(CN(C(=O)c2ccc(C)cc2)C(=O)c2ccc(C)cc2)nnc1-c1ccc(C)o1` [Example 72, N-{[4-(2,6-Dimethoxyphenyl)-5-(5-methylfuran-2-yl)-4H-1,2,4-triazol-3-yl]methyl}-4-methyl-N-(4-methylbenzoyl)benzamide] was tested, and the EC50 was 95 nM. Work on `COc1cccc(OC)c1-n1c(CC#N)nnc1-c1ccc(C)o1` [Example 73, [4-(2,6-Dimethoxyphenyl)-5-(5-methylfuran-2-yl)-4H-1,2,4-triazol-3-yl]acetonitrile] yielded an EC50 of 1020 nM. Molecule `COc1cccc(OC)c1-n1c(SCc2nnn[nH]2)nnc1-c1ccc(C)o1` [Example 74, 5-({[4-(2,6-Dimethoxyphenyl)-5-(5-methylfuran-2-yl)-4H-1,2,4-triazol-3-yl]sulfanyl}methyl)-1H-tetrazole] has an EC50 of 98 nM. Work on `COc1cccc(OC)c1-n1c(SCc2cccnn2)nnc1-c1ccc(C)o1` [Example 75, 3-({[4-(2,6-Dimethoxyphenyl)-5-(5-methylfuran-2-yl)-4H-1,2,4-triazol-3-yl]sulfanyl}methyl)pyridazine] yielded an EC50 of 128 nM. Molecule `COc1cccc(OC)c1-n1c(SCc2nccs2)nnc1-c1ccc(C)o1` [Example 76, 4-(2,6-Dimethoxyphenyl)-3-(5-methylfuran-2-yl)-5-[(1,3-thiazol-2-ylmethyl)sulfanyl]-4H-1,2,4-triazole] has an EC50 of 158 nM. `COC(=O)c1ccccc1CSc1nnc(-c2ccc(C)o2)n1-c1c(OC)cccc1OC` [Example 77, Methyl 2-({[4-(2,6-dimethoxyphenyl)-5-(5-methylfuran-2-yl)-4H-1,2,4-triazol-3-yl]sulfanyl}methyl)benzoate] showed an EC50 of 557 nM. `COc1cccc(OC)c1-n1c(SCc2ccccc2C(=O)O)nnc1-c1ccc(C)o1` [Example 78, 2-({[4-(2,6-Dimethoxyphenyl)-5-(5-methylfuran-2-yl)-4H-1,2,4-triazol-3-yl]sulfanyl}methyl)benzoic acid] showed an EC50 of 34 nM. In the case of `COC(=O)c1cccc(CSc2nnc(-c3ccc(C)o3)n2-c2c(OC)cccc2OC)c1` [Example 79, Methyl 3-({[4-(2,6-dimethoxyphenyl)-5-(5-methylfuran-2-yl)-4H-1,2,4-triazol-3-yl]sulfanyl}methyl)benzoate], the EC50 is reported as 208 nM. In the case of `COc1cccc(OC)c1-n1c(SCc2cccc(C(=O)O)c2)nnc1-c1ccc(C)o1` [Example 80, 3-({[4-(2,6-Dimethoxyphenyl)-5-(5-methylfuran-2-yl)-4H-1,2,4-triazol-3-yl]sulfanyl}methyl)benzoic acid], the EC50 is reported as 1530 nM. `COC(=O)c1ccc(CSc2nnc(-c3ccc(C)o3)n2-c2c(OC)cccc2OC)cc1` [Example 81, Methyl 4-({[4-(2,6-dimethoxyphenyl)-5-(5-methylfuran-2-yl)-4H-1,2,4-triazol-3-yl]sulfanyl}methyl)benzoate] gave an EC50 of 71 nM. Molecule `COc1cccc(OC)c1-n1c(SCc2ccc(C(=O)O)cc2)nnc1-c1ccc(C)o1` [Example 82, 4-({[4-(2,6-Dimethoxyphenyl)-5-(5-methylfuran-2-yl)-4H-1,2,4-triazol-3-yl]sulfanyl}methyl)benzoic acid] has an EC50 of 5460 nM. `COc1cccc(OC)c1-n1c(SCC(N)=O)nnc1-c1ccc(C)o1` [Example 83, 2-{[4-(2,6-Dimethoxyphenyl)-5-(5-methylfuran-2-yl)-4H-1,2,4-triazol-3-yl]sulfanyl}acetamide] gave an EC50 of 219 nM. `COc1cccc(OC)c1-n1c(SCC#N)nnc1-c1ccc(C)o1` [Example 84, {[4-(2,6-Dimethoxyphenyl)-5-(5-methylfuran-2-yl)-4H-1,2,4-triazol-3-yl]sulfanyl}acetonitrile] gave an EC50 of 267 nM. For `COc1cccc(OC)c1-n1c(SC)nnc1-c1ccc(C)o1` [Example 85, 4-(2,6-Dimethoxyphenyl)-3-(5-methylfuran-2-yl)-5-(methylsulfanyl)-4H-1,2,4-triazole], the EC50 was 253 nM. With `COc1cccc(OC)c1-n1c(-c2ccc(C)o2)nnc1S(C)(=O)=O` [Example 86, 4-(2,6-Dimethoxyphenyl)-3-(5-methylfuran-2-yl)-5-(methylsulfonyl)-4H-1,2,4-triazole] the EC50 was 2020 nM. `COc1cccc(OC)c1-n1c(OCC(OC)OC)nnc1-c1ccc(C)o1` [Example 87, 3-(2,2-Dimethoxyethoxy)-4-(2,6-dimethoxyphenyl)-5-(5-methylfuran-2-yl)-4H-1,2,4-triazole] showed an EC50 of 744 nM. Molecule `COc1cccc(OC)c1-n1c(OCC(=O)O)nnc1-c1ccc(C)o1` [Example 88, {[4-(2,6-Dimethoxyphenyl)-5-(5-methylfuran-2-yl)-4H-1,2,4-triazol-3-yl]oxy}acetic acid] has an EC50 of 35 nM.
